Reference: the supplement of paper PMC11451515

System: P12-Ichikawa
Experiment: cell viability relative to DMSO control; higher = less cytotoxic
Conditions: 48 h
How it was run: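 NOMO1, SEM and P12-Ichikawa leukemia cells spent at least four passages adapting to each medium before use. They were seeded at 500 cells/well (NOMO1, SEM) or 1000 cells/well (P12-Ichikawa) in 5 μl in 1536-well plates and pin-dosed with library compounds in DMSO at 11 threefold steps from 47 μM down to 0.79 nM. After 48 h at 37°C, CellTiter-Glo One luminescence was read. Viability is reported as a percentage of the DMSO wells on each plate, with cell-free wells as background.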

[1] = HPLM + 10% dialyzed FBS, 0.000781 µM
[2] = HPLM + 10% dialyzed FBS, 0.00234 µM
[3] = HPLM + 10% dialyzed FBS, 0.00702 µM
[4] = HPLM + 10% dialyzed FBS, 0.0211 µM
[5] = HPLM + 10% dialyzed FBS, 0.0632 µM
[6] = HPLM + 10% dialyzed FBS, 0.19 µM
[7] = HPLM + 10% dialyzed FBS, 0.569 µM
[8] = HPLM + 10% dialyzed FBS, 1.71 µM
[9] = HPLM + 10% dialyzed FBS, 5.12 µM
[10] = HPLM + 10% dialyzed FBS, 15.4 µM
[11] = HPLM + 10% dialyzed FBS, 46.1 µM
[12] = RPMI 5 mM glucose + 10% FBS, 0.000781 µM
[13] = RPMI 5 mM glucose + 10% FBS, 0.00234 µM
[14] = RPMI 5 mM glucose + 10% FBS, 0.00702 µM
[15] = RPMI 5 mM glucose + 10% FBS, 0.0211 µM
[16] = RPMI 5 mM glucose + 10% FBS, 0.0632 µM
[17] = RPMI 5 mM glucose + 10% FBS, 0.19 µM
[18] = RPMI 5 mM glucose + 10% FBS, 0.569 µM
[19] = RPMI 5 mM glucose + 10% FBS, 1.71 µM
[20] = RPMI 5 mM glucose + 10% FBS, 5.12 µM
[21] = RPMI 5 mM glucose + 10% FBS, 15.4 µM
[22] = RPMI 5 mM glucose + 10% FBS, 46.1 µM
[23] = RPMI 5 mM glucose + 10% dialyzed FBS, 0.000781 µM
[24] = RPMI 5 mM glucose + 10% dialyzed FBS, 0.00234 µM
[25] = RPMI 5 mM glucose + 10% dialyzed FBS, 0.00702 µM
[26] = RPMI 5 mM glucose + 10% dialyzed FBS, 0.0211 µM
[27] = RPMI 5 mM glucose + 10% dialyzed FBS, 0.0632 µM
[28] = RPMI 5 mM glucose + 10% dialyzed FBS, 0.19 µM
[29] = RPMI 5 mM glucose + 10% dialyzed FBS, 0.569 µM
[30] = RPMI 5 mM glucose + 10% dialyzed FBS, 1.71 µM
[31] = RPMI 5 mM glucose + 10% dialyzed FBS, 5.12 µM
[32] = RPMI 5 mM glucose + 10% dialyzed FBS, 15.4 µM
[33] = RPMI 5 mM glucose + 10% dialyzed FBS, 46.1 µM

Row | SMILES | cell viability [1] [%] | cell viability [2] [%] | cell viability [3] [%] | cell viability [4] [%] | cell viability [5] [%] | cell viability [6] [%] | cell viability [7] [%] | cell viability [8] [%] | cell viability [9] [%] | cell viability [10] [%] | cell viability [11] [%] | cell viability [12] [%] | cell viability [13] [%] | cell viability [14] [%] | cell viability [15] [%] | cell viability [16] [%] | cell viability [17] [%] | cell viability [18] [%] | cell viability [19] [%] | cell viability [20] [%] | cell viability [21] [%] | cell viability [22] [%] | cell viability [23] [%] | cell viability [24] [%] | cell viability [25] [%] | cell viability [26] [%] | cell viability [27] [%] | cell viability [28] [%] | cell viability [29] [%] | cell viability [30] [%] | cell viability [31] [%] | cell viability [32] [%] | cell viability [33] [%]
1 | CNC(=O)c1c(F)cccc1Nc1nc(Nc2cc3c(cc2OC)CCN3C(=O)CN(C)C)nc2[nH]ccc12 | 91.4 | 97 | 110 | 110 | 111 | 109 | 112 | 108 | 81.5 | 87.4 | 51 | 112 | 113 | 105 | 123 | 114 | 122 | 120 | 110 | 113 | 113 | 51.3 | 110 | 117 | 120 | 119 | 129 | 122 | 121 | 118 | 110 | 103 | 43.6
2 | COc1ccc(-c2nc3cc(C4=NNC(=O)CC4C)ccc3[nH]2)cc1 (stereo not given) | 104 | 105 | 109 | 113 | 107 | 114 | 108 | 114 | 105 | 106 | 98.7 | 103 | 110 | 110 | 111 | 115 | 105 | 108 | 105 | 113 | 111 | 117 | 88.3 | 98.5 | 104 | 103 | 108 | 93.2 | 102 | 104 | 109 | 110 | 84.1
3 | CCC1=C(C)CN(C(=O)NCCc2ccc(S(=O)(=O)NC(=O)N[C@H]3CC[C@H](C)CC3)cc2)C1=O | 94.6 | 102 | 98.9 | 104 | 107 | 104 | 102 | 105 | 97.7 | 109 | 109 | 89.5 | 101 | 95.5 | 92.9 | 95.3 | 111 | 107 | 101 | 87.3 | 113 | 115 | 90.7 | 86 | 90.7 | 92.5 | 103 | 104 | 98.5 | 98.8 | 94.8 | 104 | 108
4 | CCCCOc1ccc(C(=O)Nc2ccc(F)cc2F)cc1 | 83.2 | 95.7 | 83.5 | 86.5 | 90.6 | 85.3 | 89.1 | 97.1 | 96 | 102 | 67.1 | 78.9 | 91.8 | 82 | 92.9 | 89.4 | 89.5 | 89.4 | 93 | 89 | 88.1 | 84.3 | 84 | 83.7 | 79.2 | 87.1 | 83.9 | 80.2 | 86.7 | 89.3 | 92.5 | 87.3 | 86.6
5 | COC1=CC=C(C=C1)C/2=C/OC3=CC(=CC=C3C2=O)O | 122 | 116 | 114 | 112 | 124 | 111 | 115 | 102 | 106 | 104 | 96.7 | 120 | 120 | 115 | 120 | 121 | 112 | 118 | 111 | 113 | 114 | 103 | 116 | 111 | 115 | 118 | 108 | 105 | 117 | 104 | 108 | 96.2 | 101
6 | N#Cc1c(C2CCNCC2)cc(-c2c(O)cccc2OCC2CC2)nc1N | 113 | 113 | 112 | 110 | 108 | 108 | 106 | 107 | 101 | 106 | 92 | 116 | 125 | 123 | 117 | 109 | 97.2 | 108 | 105 | 105 | 106 | 91.3 | 114 | 116 | 119 | 126 | 105 | 114 | 111 | 107 | 107 | 99.7 | 85.9
7 | Cc1c(OCC(F)(F)F)ccnc1C[S+]([O-])c1nc2ccccc2[nH]1 (stereo not given) | 99.9 | 111 | 109 | 105 | 108 | 113 | 113 | 112 | 118 | 112 | 107 | 99 | 100 | 98.2 | 94 | 106 | 115 | 108 | 112 | 114 | 101 | 102 | 102 | 102 | 102 | 111 | 104 | 103 | 110 | 112 | 108 | 111 | 96.2
8 | CO[C@@H]1[C@H](N(C)C(=O)c2ccccc2)C[C@H]2O[C@]1(C)n1c3ccccc3c3c4c(c5c6ccccc6n2c5c31)C(=O)NC4 | 113 | 111 | 113 | 112 | 121 | 122 | 122 | 109 | 17.9 | 15 | 18.9 | 112 | 110 | 111 | 117 | 119 | 122 | 124 | 106 | 24.4 | 28.8 | 24.4 | 111 | 125 | 117 | 116 | 123 | 140 | 126 | 111 | 35.7 | 33.1 | 30.2
9 | CCOc1cc2c(c(F)c1OCC)C(=N)N(CC(=O)c1cc(N3CCOCC3)c(OC)c(C(C)(C)C)c1)C2 | 104 | 105 | 107 | 114 | 112 | 111 | 115 | 115 | 116 | 118 | 100 | 110 | 124 | 128 | 118 | 126 | 132 | 128 | 127 | 124 | 131 | 108 | 108 | 114 | 111 | 118 | 125 | 117 | 119 | 117 | 113 | 120 | 105
10 | CC(C)(Cc1ccc2ccccc2c1)NC[C@@H](O)COc1cccc(Cl)c1C#N | 123 | 124 | 126 | 122 | 121 | 120 | 123 | 116 | 123 | 117 | 10.7 | – | – | – | – | – | – | – | – | – | – | – | – | – | – | – | – | – | – | – | – | – | –
11 | CC1=C(/C=C/C(C)=C/C=C/C(C)=C/C(=O)Nc2ccc(O)cc2)C(C)(C)CCC1 | 85.1 | 83.4 | 85.5 | 96.1 | 90.8 | 91.8 | 93.8 | 68.5 | 23.7 | 8.54 | 3.66 | 82 | 88.8 | 83 | 91.8 | 86.3 | 81.9 | 87 | 57.9 | 28.5 | 7.98 | 1.15 | 83.3 | 85.9 | 84 | 84.8 | 83.4 | 81.5 | 83.3 | 23.8 | 6.39 | 4.24 | 1.74
12 | CCOC(=O)c1ccc(C#Cc2ccc3c(c2)C(C)(C)CCS3)nc1 | 98.6 | 108 | 102 | 105 | 105 | 118 | 110 | 110 | 108 | 107 | 78.7 | 95.2 | 96.1 | 106 | 109 | 108 | 106 | 101 | 106 | 106 | 110 | 94.5 | 98.8 | 99.9 | 109 | 110 | 108 | 107 | 102 | 113 | 104 | 96.1 | 102
13 | COc1ccc(-c2c(-c3ccc(O)cc3O)n[nH]c2C)cc1 | 108 | 101 | 117 | 112 | 114 | 106 | 112 | 107 | 105 | 101 | 78.1 | 99.8 | 105 | 105 | 100 | 110 | 106 | 105 | 112 | 102 | 95.6 | 68.6 | 101 | 106 | 110 | 111 | 107 | 113 | 113 | 113 | 105 | 101 | 89.5
14 | CC(=O)SCC(Cc1ccccc1)C(=O)NCC(=O)OCc1ccccc1 (stereo not given) | 93.4 | 92.2 | 103 | 104 | 103 | 102 | 105 | 103 | 101 | 66.9 | 8.75 | 105 | 93.6 | 106 | 102 | 99.9 | 98.2 | 101 | 100 | 98.6 | 54 | 59.3 | 85.3 | 91.2 | 96.2 | 94.3 | 104 | 95.5 | 101 | 103 | 90.1 | 34.7 | 50.3
15 | CCOc1ccccc1OCCNC(C)Cc1ccc(OC)c([S+](N)(=O)[O-])c1 (stereo not given) | 88.4 | 104 | 113 | 109 | 103 | 111 | 114 | 105 | 104 | 108 | 107 | 104 | 111 | 111 | 110 | 114 | 106 | 114 | 114 | 117 | 117 | 114 | 82.8 | 103 | 101 | 104 | 103 | 95.8 | 103 | 112 | 110 | 109 | 102
16 | CN(C)CCC=C1C2=C(C=CC=C2)\C=C/C3=C1C=CC=C3 | 109 | 118 | 114 | 117 | 120 | 123 | 106 | 105 | 96.9 | 105 | 87.1 | – | – | – | – | – | – | – | – | – | – | – | 115 | 109 | 105 | 115 | 119 | 107 | 111 | 102 | 106 | 105 | 84.1
